The values that follow come from patent US20110039783A1, “PEPTIDE HAVING HYPOTENSIVE ACTIVITY” (DAIICHI SANKYO COMPANY LIMITED, priority 2007, published 2011).

Test [1] deals with blood pressure of anesthetized Sprague-Dawley IGS male rats. The test can be described thus: Hypotensive activity in anesthetized rats, invasive blood pressure measurement after intravenous administration. The conditions noted are these: for Hypotensive activity (dose/rat) 10 nmol / Hypotensive activity (dose/rat) 30 nmol / Hypotensive activity (dose/rat) 100 nmol: anesthetized rats, intravenous; for Hypotensive activity (dose/rat) 10 nmol: 10 nmol/rat; for Hypotensive activity (dose/rat) 30 nmol: 30 nmol/rat; for Hypotensive activity (dose/rat) 100 nmol: 100 nmol/rat; for dose dependence of hypotensive activity: anesthetized rats, 10, 30, 100 nmol/rat. It counts as in vivo, rat. As for the experimental part: 50 mg/kg pentobarbital sodium was intraperitoneally administered to 8- to 10-week-old Sprague-Dawley IGS male rats (Charles River Laboratories Japan, Inc.) for anesthesia. Thereafter, a tracheal cannula (PE 250), a femoral vein cannula (PE50), and a femoral artery cannula (PESO) were inserted into each rat. The femoral artery cannula was connected with a pressure transducer (PE23XL; manufactured by Nihon Kohden Corporation), and an apparatus formed by incorporating a blood pressure measurement unit (AP-641G; manufactured by Nihon Kohden Corporation) and an instantaneous heart rate measurement unit (AT-601G; manufactured by Nihon Kohden Corporation) into a multi-purpose preamplifier (RP-6004; manufactured by Nihon Kohden Corporation) was used to record the blood pressure and heart rate of each rat. The blood pressure was calibrated using a mercury manometer included in a stand-type electromanometer (MP-25S; manufactured by Nihon Kohden Corporation). The recording paper was adjusted, such that 10 mm or 20 mm on the recording paper corresponded to 100 mmHg.
Each peptide was dissolved in a concentration of 1 mM or 10 mM in a 0.1% acetic acid solution to prepare a peptide solution. Thereafter, depending on dose, it was diluted with a normal saline containing 0.1% bovine serum albumin (Fr.V). In the case of the dose of 10 nmol/rat, a 1 mM peptide solution was 10 times diluted, and 100 μl of the diluted solution was administered. In the case of the dose of 30 nmol/rat, a 1 mM peptide solution was 10 times diluted, and 300 μL, of the diluted solution was administered. In the case of the dose of 100 nmol/rat, a 10 mM peptide solution was 10 times diluted, and 100 μL of the diluted solution was administered. Each peptide was intravenously administered via the femoral vein cannula, and the systolic blood pressure, diastolic blood pressure, and heart rate were then measured.
Various HC021 derivative peptides were synthesized in accordance with Example 1, and such peptide was then administered to each rat at a dose of 10 nmol/rat, 30 nmol/rat, or 100 mol/rat by the method described in Example 2. Thereafter, the hypotensive activity of each derivative peptide was measured. […] The strength of such activity was determined using a median of activity in repeated experiments. In addition, in order to make a comparison among the activities of various derivative peptides, the strength of hypotensive activity was defined as follows.
Strength of Hypotensive Activity
Extremely strong activity (+++): A decrease in systolic blood pressure is 30 mmHg or more, and the time required for recovery is 5 minutes or more.
Strong activity (++): A decrease in systolic blood pressure is 20 mmHg or more and less than 30 mmHg, or the time required for recovery is less than 5 minutes.
Activity observed (+): A decrease in systolic blood pressure is less than 20 mmHg.
Activity not observed (−)
Various HC021 peptide sequence-substituted products were synthesized in accordance with Example 1, and their hypotensive activity was then measured according to the method of Example 3.

Test [2] relates to blood pressure of awake Sprague-Dawley IGS male rats. The test can be described thus: Hypotensive activity on awake rats. Format: in vivo, rat. The arrangement: key to Hypotensive activity (dose/rat) 10 nmol / Hypotensive activity (dose/rat) 30 nmol: Extremely strong activity (+++): A decrease in systolic blood pressure is 30 mmHg or more, and the time required for recovery is 5 minutes or more.; Strong activity (++): A decrease in systolic blood pressure is 20 mmHg or more and less than 30 mmHg, or the time required for recovery is less than 5 minutes.; Activity observed (+): A decrease in systolic blood pressure is less than 20 mmHg.; Activity not observed (−). The method, then: 50 mg/kg pentobarbital sodium was intraperitoneally administered to 8- to 10-week-old Sprague-Dawley IGS male rats (Charles River Laboratories Japan, Inc.) for anesthesia. Thereafter, a jugular vein cannula (Silascon 0.5-1.0) was inserted into each rat for use in peptide administration, and a carotid artery cannula (PE50) was inserted into each rat for use in the measurement of blood pressure. At least 3 hours after the surgery, it was confirmed that the rats were awoken from the anesthesia based on general conditions such as the posture, respiration, and the like of the rats. Thereafter, the rats were subjected to the experiment.
The carotid artery cannula was connected with a pressure transducer (PE23XL; manufactured by Nihon Kohden Corporation), and an apparatus formed by incorporating a blood pressure measurement unit (AP-641G; manufactured by Nihon Kohden Corporation) and an instantaneous heart rate measurement unit (AT-601G; manufactured by Nihon Kohden Corporation) into a multi-purpose preamplifier (RP-6004; manufactured by Nihon Kohden Corporation) was used to record the blood pressure and heart rate of each rat. The blood pressure was calibrated using a mercury manometer included in a stand-type electromanometer (MP-25S; manufactured by Nihon Kohden Corporation). The recording paper was adjusted, such that 20 mm or 40 mm on the recording paper corresponded to 100 mmHg. A solvent in which each peptide had been dissolved was used as a negative control in blood pressure fluctuation.
Each peptide was dissolved in a concentration of 1 mM in a 5% mannitol solution to prepare a peptide solution. Thereafter, depending on dose, it was diluted with a 5% mannitol solution. In the case of the dose of 10 nmol/rat, a 1 mM peptide solution was 30 times diluted, and 300 μL of the diluted solution was administered. In the case of the dose of 30 nmol/rat, a 1 mM peptide solution was 10 times diluted, and 300 μl of the diluted solution was administered. In the case of the dose of 100 nmol/rat, a 1 mM peptide solution was 3 times diluted, and 300 μL of the diluted solution was administered. Each peptide was intravenously administered via the jugular vein cannula, and the systolic blood pressure, diastolic blood pressure, and heart rate were then measured.
The definition of the strength of hypotensive activity was the same as that of Example 3.

For test [3], the system named is anti-[N-Cys]-HC021-004 serum. Briefly: ELISA binding of anti-[N-Cys]-HC021-004 serum to coated peptides. The arrangement: species or system rabbit. The conditions noted are these: absorbance at 405 nm, FIG. 3. The source says: Using [N-Cys]-HC021-004 (a peptide prepared by binding cysteine to the amino terminus of HC021-004) as an antigen, a rabbit was immunized with the antigen to produce antiserum (anti-[N-Cys]-HC021-004 serum).
The ability of this antiserum to bind to peptides having various types of sequences was examined using Protein Detector™ ELISA kit (AP; BluePhos System; manufactured by KPL). Reactions were all carried out at a room temperature. A 96-well immunoplate (maxi-coated; manufactured by Nunc) was coated (amount: 100 uL/well) with each peptide having a different type of sequence (concentration: 1 ng/100 uL) for 1 hour. Then, it was blocked with a 300 uL/well blocking solution for 1 hour. Thereafter, the serially diluted antiserum was added in an amount of 100 uL/well to the immunoplate, followed by reaction for 1 hour. After completion of washing, 500-times diluted Anti-rabbit IgG HRP Ab (manufactured by KPL) was added thereto in an amount of 100 uL/well, followed by reaction for 1 hour. After completion of washing, ABTS (manufactured by KPL) used as a substrate was added thereto in an amount of 100 uL/well. Thirty minutes later, the absorbance at 405 nm was measured.

Where no end group is shown, it is not given here.

Take “ATLRNEDTWKPLSNPRNRELFFRSLQAYFK-amide [Compound 36]”: the “Hypotensive activity (dose/rat) 10 nmol” value in test [1] (Table 3) is “−”; in test [2] (Table 4, intravenous, 10 nmol/rat), “−”. Also, the “Hypotensive activity (dose/rat) 30 nmol” value in test [1] (Table 3) is “−”; in test [2] (Table 4, intravenous, 30 nmol/rat), “−”. For the same substance, the “Hypotensive activity (dose/rat) 100 nmol” value was “+++ (Extremely strong activity (+++): A decrease in systolic blood pressure is 30 mmHg or more, and the time required for recovery is 5 minutes or more.)” in test [1] (Table 3); “++ (Strong activity (++): A decrease in systolic blood pressure is 20 mmHg or more and less than 30 mmHg, or the time required for recovery is less than 5 minutes.)” in test [2] (Table 4, intravenous, 100 nmol/rat). The “hypotensive activity (in words)” value in test [2] is listed as “observed to have a hypotensive activity even on the awake rats”.

LQAYFK-amide (LQAYFK-NH2) [Compound 4]: in test [1] (Table 1), the “Hypotensive activity (dose/rat) 30 nmol” value was “−” and the “Hypotensive activity (dose/rat) 100 nmol” value is reported as “−”. In test [1] (Table 2), the “Hypotensive activity (dose/rat) 30 nmol” value is listed as “−” and the “Hypotensive activity (dose/rat) 100 nmol” value is listed as “−”. For the same substance, in test [3], the “binding of anti-[N-Cys]-HC021-004 serum to the peptide” value is listed as “bound”.

On to LQAYFKGRGLDLGTFPNPFPTNENP [Compound 2], for which, in test [1] (Table 1), the “Hypotensive activity (dose/rat) 10 nmol” value is listed as “−”, the “Hypotensive activity (dose/rat) 30 nmol” value is reported as “−” and the “Hypotensive activity (dose/rat) 100 nmol” value is listed as “−”. Moreover, in test [3], the “binding of anti-[N-Cys]-HC021-004 serum to the peptide” value is “did not bind”.

For NRDLFFRRLQAYFKGR [Compound 13], in test [1] (Table 2), the “Hypotensive activity (dose/rat) 30 nmol” value was “−”; the “Hypotensive activity (dose/rat) 100 nmol” value was “++ (Strong activity (++): A decrease in systolic blood pressure is 20 mmHg or more and less than 30 mmHg, or the time required for recovery is less than 5 minutes.)”.

For the substance “NRDLFFRRLQAYFKGR-amide (NRDLFFRRLQAYFKGR-NH2) [Compound 14]”, in test [1] (Table 2), the “Hypotensive activity (dose/rat) 10 nmol” value is listed as “+ (Activity observed (+): A decrease in systolic blood pressure is less than 20 mmHg.)”; the “Hypotensive activity (dose/rat) 30 nmol” value is “++ (Strong activity (++): A decrease in systolic blood pressure is 20 mmHg or more and less than 30 mmHg, or the time required for recovery is less than 5 minutes.)”. In addition, the “dose dependence of hypotensive activity” value in test [1] was “enhanced their hypotensive activity in a dose-dependent manner”.

As for “NRELFFRRLQAYFK-amide (NRELFFRRLQAYFK-NH2) [Compound 41]”, in test [1] (Table 3), the “Hypotensive activity (dose/rat) 10 nmol” value is given as “−”; the “Hypotensive activity (dose/rat) 30 nmol” value was “++ (Strong activity (++): A decrease in systolic blood pressure is 20 mmHg or more and less than 30 mmHg, or the time required for recovery is less than 5 minutes.)”.

As for “RDLFFRRLQAYFK-amide (RDLFFRRLQAYFK-NH2) [Compound 16]”, in test [1] (Table 2), the “Hypotensive activity (dose/rat) 10 nmol” value is listed as “−”; the “Hypotensive activity (dose/rat) 30 nmol” value is “++ (Strong activity (++): A decrease in systolic blood pressure is 20 mmHg or more and less than 30 mmHg, or the time required for recovery is less than 5 minutes.)”; the “Hypotensive activity (dose/rat) 100 nmol” value is “+++ (Extremely strong activity (+++): A decrease in systolic blood pressure is 30 mmHg or more, and the time required for recovery is 5 minutes or more.)”. Besides, the “dose dependence of hypotensive activity” value in test [1] is on record as “enhanced their hypotensive activity in a dose-dependent manner”.

As to “RLQAYFK-amide (RLQAYFK-NH2) [Compound 23]”, in test [1] (Table 2), the “Hypotensive activity (dose/rat) 30 nmol” value was “−” and the “Hypotensive activity (dose/rat) 100 nmol” value is listed as “−”.

“RRLQAYFK-amide (RRLQAYFK-NH2) [Compound 22]”: in test [1] (Table 2), the “Hypotensive activity (dose/rat) 30 nmol” value is reported as “−” and the “Hypotensive activity (dose/rat) 100 nmol” value is “−”.

For the substance “VQQRKESKKPPAKLQPRNRDLFFRRLQAYFK-amide (VQQRKESKKPPAKLQPRNRDLFFRRLQAYFK-NH2) [Compound 40]”, the “Hypotensive activity (dose/rat) 30 nmol” value in test [1] (Table 3) is “++ (Strong activity (++): A decrease in systolic blood pressure is 20 mmHg or more and less than 30 mmHg, or the time required for recovery is less than 5 minutes.)”.

In the case of “acetyl-ATVRNEDKWKPLNNPRNRDLFFRRLQAYFK-amide [Compound 31]”, the “Hypotensive activity (dose/rat) 30 nmol” value in test [1] (Table 2) is “+++ (Extremely strong activity (+++): A decrease in systolic blood pressure is 30 mmHg or more, and the time required for recovery is 5 minutes or more.)”.

In the case of “acetyl-NRDLFFRRLQAYFK-amide (Ac-NRDLFFRRLQAYFK-NH2) [Compound 32]”, the “Hypotensive activity (dose/rat) 30 nmol” value in test [1] (Table 2) is “++ (Strong activity (++): A decrease in systolic blood pressure is 20 mmHg or more and less than 30 mmHg, or the time required for recovery is less than 5 minutes.)”.

For “pyr-EDKWKPLNNPRNRDLFFRRLQAYFK-amide (not fully specified; N-terminal pyroglutamate, C-terminal amide) [Compound 33]”, the “Hypotensive activity (dose/rat) 10 nmol” value in test [1] (Table 2) is “++ (Strong activity (++): A decrease in systolic blood pressure is 20 mmHg or more and less than 30 mmHg, or the time required for recovery is less than 5 minutes.)”.
